{"source": "paper PMC5218480", "about": "(PLoS ONE, 2017)", "system": "MV-4-11 cells", "assay": "Gene expression microarray analysis (Affymetrix PrimeView) and GSEA", "assay_type": "cell-based, human", "design": "RFU PODN (11730768_x_at) / Fold change /veh PODN (11730768_x_at) / RFU LINC00158 (11744669_a_at) / Fold change /veh LINC00158 (11744669_a_at) / RFU DUSP10 (11751237_a_at) / Fold change /veh DUSP10 (11751237_a_at) / RFU ID3 (11757404_x_at) / Fold change /veh ID3 (11757404_x_at) / RFU PLEKHG5 (11737974_s_at) / Fold change /veh PLEKHG5 (11737974_s_at) / RFU LRRC4B (11730491_at) / Fold change /veh LRRC4B (11730491_at) / RFU GIMAP4 (11747438_a_at) / Fold change /veh GIMAP4 (11747438_a_at) / RFU KRT8 (11758183_x_at) / Fold change /veh KRT8 (11758183_x_at) / RFU CNN1 (11734310_a_at) / Fold change /veh CNN1 (11734310_a_at) / RFU VPS37D (11726825_at) / Fold change /veh VPS37D (11726825_at) / RFU C10orf10 (11716522_x_at) / Fold change /veh C10orf10 (11716522_x_at) / RFU KIR2DL2 /// KIR2DL4 /// KIR2DL5A /// KIR2DL5B /// KIR2DS1 /// KIR2DS2 /// KIR2DS3 /// KIR2DS4 /// KIR3DL3 /// KIR3DL3 /// KIR3DS1 (11738374_at) / Fold change /veh KIR2DL2 /// KIR2DL4 /// KIR2DL5A /// KIR2DL5B /// KIR2DS1 /// KIR2DS2 /// KIR2DS3 /// KIR2DS4 /// KIR3DL3 /// KIR3DL3 /// KIR3DS1 (11738374_at) / RFU C1QL1 (11718748_at) / Fold change /veh C1QL1 (11718748_at) / RFU TMPRSS4 (11747572_a_at) / Fold change /veh TMPRSS4 (11747572_a_at) / RFU HAMP (11756126_x_at) / Fold change /veh HAMP (11756126_x_at) / RFU RNFT2 (11725882_a_at) / Fold change /veh RNFT2 (11725882_a_at) / RFU NR4A2 (11747474_a_at) / Fold change /veh NR4A2 (11747474_a_at) / RFU ABCC12 (11746883_a_at) / Fold change /veh ABCC12 (11746883_a_at) / RFU TMEM136 (11760407_x_at) / Fold change /veh TMEM136 (11760407_x_at) / RFU CLDN22 /// WWC2 (11732394_at) / Fold change /veh CLDN22 /// WWC2 (11732394_at) / RFU HLA-DPB1 (11760878_x_at) / Fold change /veh HLA-DPB1 (11760878_x_at) / RFU SPINT1 (11716480_a_at) / Fold change /veh SPINT1 (11716480_a_at) / RFU GAP43 (11754022_s_at) / Fold change /veh GAP43 (11754022_s_at) / RFU A4GNT (11735810_at) / Fold change /veh A4GNT (11735810_at) / RFU PRB3 (11715151_x_at) / Fold change /veh PRB3 (11715151_x_at) / RFU TUBB4B (11761932_at) / Fold change /veh TUBB4B (11761932_at) / RFU CAPN14 (11732068_a_at) / Fold change /veh CAPN14 (11732068_a_at) / RFU TMCC2 (11721928_a_at) / Fold change /veh TMCC2 (11721928_a_at) / RFU IRGQ (11745062_a_at) / Fold change /veh IRGQ (11745062_a_at) / RFU FAM174B (11720279_a_at) / Fold change /veh FAM174B (11720279_a_at) / RFU TMPRSS4 (11748680_a_at) / Fold change /veh TMPRSS4 (11748680_a_at) / RFU FAM212B (11763350_a_at) / Fold change /veh FAM212B (11763350_a_at) / RFU PLEKHG5 (11743358_a_at) / Fold change /veh PLEKHG5 (11743358_a_at) / RFU ZSCAN30 (11745921_a_at) / Fold change /veh ZSCAN30 (11745921_a_at) / RFU CMKLR1 (11741424_a_at) / Fold change /veh CMKLR1 (11741424_a_at) / RFU LOC101060620 /// MAPK8IP1 (11723275_at) / Fold change /veh LOC101060620 /// MAPK8IP1 (11723275_at) / RFU SPTSSB (11747773_x_at) / Fold change /veh SPTSSB (11747773_x_at) / RFU PRSS12 (11739890_at) / Fold change /veh PRSS12 (11739890_at) / RFU BIN1 (11741810_x_at) / Fold change /veh BIN1 (11741810_x_at) / RFU WNT11 (11732464_a_at) / Fold change /veh WNT11 (11732464_a_at) / RFU C10orf10 (11716521_a_at) / Fold change /veh C10orf10 (11716521_a_at) / RFU C5orf56 (11738089_at) / Fold change /veh C5orf56 (11738089_at) / RFU CYB561 (11721691_x_at) / Fold change /veh CYB561 (11721691_x_at) / RFU ANKRD19P (11752326_a_at) / Fold change /veh ANKRD19P (11752326_a_at) / RFU OR2T12 /// OR2T33 /// OR2T8 (11738714_s_at) / Fold change /veh OR2T12 /// OR2T33 /// OR2T8 (11738714_s_at) / RFU VCAN (11748164_a_at) / Fold change /veh VCAN (11748164_a_at) / RFU JSRP1 (11732532_at) / Fold change /veh JSRP1 (11732532_at) / RFU KRTAP10-11 (11738290_x_at) / Fold change /veh KRTAP10-11 (11738290_x_at) / RFU MYO3A (11730013_a_at) / Fold change /veh MYO3A (11730013_a_at) / RFU EBF3 (11725865_a_at) / Fold change /veh EBF3 (11725865_a_at) / RFU CAMK2N1 (11719241_x_at) / Fold change /veh CAMK2N1 (11719241_x_at) / RFU C5orf56 (11738088_a_at) / Fold change /veh C5orf56 (11738088_a_at) / RFU OLFML3 (11715873_a_at) / Fold change /veh OLFML3 (11715873_a_at) / RFU LOC100653217 /// NTM (11731650_a_at) / Fold change /veh LOC100653217 /// NTM (11731650_a_at) / RFU MAPK11 (11762145_a_at) / Fold change /veh MAPK11 (11762145_a_at) / RFU FIZ1 (11724087_x_at) / Fold change /veh FIZ1 (11724087_x_at) / RFU OASL (11726364_x_at) / Fold change /veh OASL (11726364_x_at) / RFU SOX15 (11748057_x_at) / Fold change /veh SOX15 (11748057_x_at) / RFU CD79A (11719716_a_at) / Fold change /veh CD79A (11719716_a_at) / RFU HIST1H1D (11736915_at) / Fold change /veh HIST1H1D (11736915_at) / RFU CASKIN2 (11723855_a_at) / Fold change /veh CASKIN2 (11723855_a_at) / RFU LOC730098 (11760151_x_at) / Fold change /veh LOC730098 (11760151_x_at) / RFU OR4N2 (11742367_at) / Fold change /veh OR4N2 (11742367_at) / RFU PRRT2 (11749266_a_at) / Fold change /veh PRRT2 (11749266_a_at) / RFU SNX32 (11753110_a_at) / Fold change /veh SNX32 (11753110_a_at) / RFU CDHR5 (11726645_a_at) / Fold change /veh CDHR5 (11726645_a_at) / RFU RCAN1 (11760418_a_at) / Fold change /veh RCAN1 (11760418_a_at) / RFU FAM167A (11723789_a_at) / Fold change /veh FAM167A (11723789_a_at) / RFU FAM26E (11764081_at) / Fold change /veh FAM26E (11764081_at) / RFU ISYNA1 (11749810_s_at) / Fold change /veh ISYNA1 (11749810_s_at) / RFU ACY1 (11761880_at) / Fold change /veh ACY1 (11761880_at) / RFU 11764098_at / Fold change /veh 11764098_at / RFU SAMD14 (11745864_x_at) / Fold change /veh SAMD14 (11745864_x_at) / RFU NPB (11741838_a_at) / Fold change /veh NPB (11741838_a_at) / RFU TMPRSS6 (11731388_a_at) / Fold change /veh TMPRSS6 (11731388_a_at) / RFU KRTAP10-2 (11738614_at) / Fold change /veh KRTAP10-2 (11738614_at) / RFU ARHGAP8 /// PRR5-ARHGAP8 (11727945_x_at) / Fold change /veh ARHGAP8 /// PRR5-ARHGAP8 (11727945_x_at) / RFU KRTAP5-7 /// NADSYN1 (11734609_at) / Fold change /veh KRTAP5-7 /// NADSYN1 (11734609_at) / RFU RASL12 (11751679_a_at) / Fold change /veh RASL12 (11751679_a_at) / RFU CDKN2B (11736163_a_at) / Fold change /veh CDKN2B (11736163_a_at) / RFU PRF1 (11729649_at) / Fold change /veh PRF1 (11729649_at) / RFU, ZNF638 /// ZNF638-IT1 / Fold change vs veh, ZNF638 /// ZNF638-IT1 / RFU, PANK3 / Fold change vs veh, PANK3 / RFU, SH3YL1 / Fold change vs veh, SH3YL1 / RFU, ZEB2 / Fold change vs veh, ZEB2 / RFU, NRIP1 / Fold change vs veh, NRIP1 / RFU, PTTG1IP / Fold change vs veh, PTTG1IP / RFU, CAPN2 / Fold change vs veh, CAPN2 / RFU, MED14 / Fold change vs veh, MED14 / RFU, SNORA58 / Fold change vs veh, SNORA58 / RFU, C1orf63 / Fold change vs veh, C1orf63 / RFU, LRRFIP1 / Fold change vs veh, LRRFIP1 / RFU, NDUFAF7 / Fold change vs veh, NDUFAF7 / RFU, SLC12A2 / Fold change vs veh, SLC12A2 / RFU, IBTK / Fold change vs veh, IBTK / RFU, ESF1 / Fold change vs veh, ESF1 / Fold change vs veh, TMEM50B / RFU, TAOK1 / Fold change vs veh, TAOK1 / RFU, ACBD3 / Fold change vs veh, ACBD3 / RFU, TMA16 / Fold change vs veh, TMA16 / RFU, RWDD3 / Fold change vs veh, RWDD3 / RFU, BCAT1 / Fold change vs veh, BCAT1 / RFU, EDEM3 / Fold change vs veh, EDEM3 / RFU, TMEM33 / Fold change vs veh, TMEM33 / RFU, WDR75 / Fold change vs veh, WDR75 / RFU, AHCTF1 / Fold change vs veh, AHCTF1 / RFU, TFRC / Fold change vs veh, TFRC / RFU, ZDHHC17 / Fold change vs veh, ZDHHC17 / RFU, NOM1 / Fold change vs veh, NOM1 / RFU, ARL8B / Fold change vs veh, ARL8B / RFU, ZBTB11 / Fold change vs veh, ZBTB11 / RFU, TAMM41 / Fold change vs veh, TAMM41 / RFU, KIAA1704 /// LOC100996395 / Fold change vs veh, KIAA1704 /// LOC100996395 / RFU, ING1 / Fold change vs veh, ING1 / RFU, TRMT61B / Fold change vs veh, TRMT61B / RFU, FUBP3 / Fold change vs veh, FUBP3 / RFU, TP53 / Fold change vs veh, TP53 / RFU, TNKS2 / Fold change vs veh, TNKS2 / RFU, ZFP14 / Fold change vs veh, ZFP14 / RFU, ACTR2 / Fold change vs veh, ACTR2 / RFU, PPP3R1 / Fold change vs veh, PPP3R1 / RFU, PIK3R1 / Fold change vs veh, PIK3R1 / RFU, HNRNPA1 / Fold change vs veh, HNRNPA1 / RFU, RNF170 / Fold change vs veh, RNF170 / RFU, ZNF28 / Fold change vs veh, ZNF28 / RFU, RNGTT / Fold change vs veh, RNGTT / RFU, OGT / Fold change vs veh, OGT / RFU, BRD1 / Fold change vs veh, BRD1 / RFU, MARS / Fold change vs veh, MARS / RFU, ZNF655 / Fold change vs veh, ZNF655 / RFU, FAHD1 / Fold change vs veh, FAHD1 / RFU, BDP1 / Fold change vs veh, BDP1 / RFU, LRRCC1 / Fold change vs veh, LRRCC1 / RFU, ARID1A / Fold change vs veh, ARID1A / RFU, ZNF146 / Fold change vs veh, ZNF146 / RFU, ZNF330 / Fold change vs veh, ZNF330 / RFU, GPN3 / Fold change vs veh, GPN3 / RFU, C9orf123 / Fold change vs veh, C9orf123 / RFU, N4BP2L2 / Fold change vs veh, N4BP2L2 / RFU, ARFIP1 / Fold change vs veh, ARFIP1 / RFU, FAM179B / Fold change vs veh, FAM179B / RFU, BCL10 / Fold change vs veh, BCL10 / RFU, UHRF1BP1L / Fold change vs veh, UHRF1BP1L / RFU, BET1 / Fold change vs veh, BET1 / RFU, CNOT2 / Fold change vs veh, CNOT2 / RFU, ZNF268 / Fold change vs veh, ZNF268 / Fold change vs veh, ZNF507 / RFU, DGCR2 / Fold change vs veh, DGCR2 / RFU, WDSUB1 / Fold change vs veh, WDSUB1 / Fold change vs veh, HSP90B1 /// MIR3652 / RFU, ADSS / Fold change vs veh, ADSS / RFU, GK / Fold change vs veh, GK / RFU, ZNF148 / Fold change vs veh, ZNF148 / RFU, TAF9 / Fold change vs veh, TAF9 / RFU, SLC1A5 / Fold change vs veh, SLC1A5 / RFU, SLMO2 / Fold change vs veh, SLMO2 / RFU, ABCC4 / Fold change vs veh, ABCC4 / RFU, LOC101060439 /// RAP1B / Fold change vs veh, LOC101060439 /// RAP1B / RFU, RFX7 / Fold change vs veh, RFX7 / RFU, GTPBP10 / Fold change vs veh, GTPBP10 / RFU, CNEP1R1 / Fold change vs veh, CNEP1R1 / RFU, BIVM-ERCC5 /// ERCC5 / Fold change vs veh, BIVM-ERCC5 /// ERCC5 / RFU, ILF3 / Fold change vs veh, ILF3 / RFU 11762660_at / Fold change /veh 11762660_at / RFU VCAN (11757783_s_at) / Fold change /veh VCAN (11757783_s_at) / RFU DDX43 (11728927_at) / Fold change /veh DDX43 (11728927_at) / RFU KRT8 (11758188_x_at) / Fold change /veh KRT8 (11758188_x_at) / RFU NKD1 (11759106_at) / Fold change /veh NKD1 (11759106_at) / RFU SRD5A1 (11742802_a_at) / Fold change /veh SRD5A1 (11742802_a_at) / RFU TPSAB1 /// TPSB2 (11721975_s_at) / Fold change /veh TPSAB1 /// TPSB2 (11721975_s_at) / RFU GSTM3 (11746129_a_at) / Fold change /veh GSTM3 (11746129_a_at) / RFU IL23R (11737362_x_at) / Fold change /veh IL23R (11737362_x_at) / RFU TMEM51 (11727254_a_at) / Fold change /veh TMEM51 (11727254_a_at) / RFU PIWIL2 (11732686_x_at) / Fold change /veh PIWIL2 (11732686_x_at) / RFU ORM1 (11744905_x_at) / Fold change /veh ORM1 (11744905_x_at) / RFU CCDC152 (11743942_at) / Fold change /veh CCDC152 (11743942_at) / RFU ECM1 (11717891_a_at) / Fold change /veh ECM1 (11717891_a_at) / RFU IL23R (11748794_a_at) / Fold change /veh IL23R (11748794_a_at) / RFU TNFAIP8L3 (11732012_x_at) / Fold change /veh TNFAIP8L3 (11732012_x_at) / RFU MBOAT4 (11741988_at) / Fold change /veh MBOAT4 (11741988_at) / RFU 11764193_at / Fold change /veh 11764193_at / RFU TMEM53 (11763286_at) / Fold change /veh TMEM53 (11763286_at) / RFU MAGEB2 (11727129_at) / Fold change /veh MAGEB2 (11727129_at) / RFU TMEM200A (11744735_a_at) / Fold change /veh TMEM200A (11744735_a_at) / RFU CCDC152 (11751479_a_at) / Fold change /veh CCDC152 (11751479_a_at) / RFU FAM211A (11726209_a_at) / Fold change /veh FAM211A (11726209_a_at) / RFU RGS16 (11746705_a_at) / Fold change /veh RGS16 (11746705_a_at) / RFU VCAN (11755009_s_at) / Fold change /veh VCAN (11755009_s_at) / RFU RHOB (11743442_s_at) / Fold change /veh RHOB (11743442_s_at) / RFU RGS16 (11720943_a_at) / Fold change /veh RGS16 (11720943_a_at) / RFU RGS16 (11720944_at) / Fold change /veh RGS16 (11720944_at) / RFU, VPS4B / Fold change vs veh, VPS4B / RFU, CREB1 / Fold change vs veh, CREB1 / RFU, DNAJC13 / Fold change vs veh, DNAJC13 / RFU, GNAQ / Fold change vs veh, GNAQ / RFU, CDK5R1 / Fold change vs veh, CDK5R1 / RFU, ZRANB3 / Fold change vs veh, ZRANB3 / RFU, CUL4A / Fold change vs veh, CUL4A / RFU, CCNY / Fold change vs veh, CCNY / RFU, UFL1 / Fold change vs veh, UFL1 / RFU, COG3 / Fold change vs veh, COG3 / RFU, DIAPH2 / Fold change vs veh, DIAPH2 / RFU, SKA2 / Fold change vs veh, SKA2 / RFU, AFF3 / Fold change vs veh, AFF3 / RFU, LMF1 / Fold change vs veh, LMF1 / RFU, IPO11 / Fold change vs veh, IPO11 / RFU, DFFB / Fold change vs veh, DFFB / RFU, FOXP1 / Fold change vs veh, FOXP1 / RFU, CARD8 / Fold change vs veh, CARD8 / RFU, STRN3 / Fold change vs veh, STRN3 / RFU, ADK / Fold change vs veh, ADK / RFU, RASSF2 / Fold change vs veh, RASSF2 / RFU, WIPF1 / Fold change vs veh, WIPF1 / RFU, LARP1B / Fold change vs veh, LARP1B / RFU, RASA1 / Fold change vs veh, RASA1 / RFU, RB1 / Fold change vs veh, RB1 / RFU, PPFIA1 / Fold change vs veh, PPFIA1 / RFU, MAT2A / Fold change vs veh, MAT2A / RFU, CCT5 / Fold change vs veh, CCT5 / RFU, WDR92 / Fold change vs veh, WDR92 / RFU, CUX1 / Fold change vs veh, CUX1 / RFU, TTC7A / Fold change vs veh, TTC7A / RFU, TMEM135 / Fold change vs veh, TMEM135 / RFU, DEPTOR / Fold change vs veh, DEPTOR / RFU, CPM / Fold change vs veh, CPM / RFU, DNAJB6 / Fold change vs veh, DNAJB6 / RFU, CACNA2D3 / Fold change vs veh, CACNA2D3 / RFU, DTX4 / Fold change vs veh, DTX4 / RFU, TFCP2 / Fold change vs veh, TFCP2 / RFU, GMCL1 /// GMCL1P1 / Fold change vs veh, GMCL1 /// GMCL1P1 / RFU, AEBP2 / Fold change vs veh, AEBP2 / RFU, SNHG1 /// SNORD22 /// SNORD25 /// SNORD26 /// SNORD27 /// SNORD28 /// SNORD29 /// SNORD31 / Fold change vs veh, SNHG1 /// SNORD22 /// SNORD25 /// SNORD26 /// SNORD27 /// SNORD28 /// SNORD29 /// SNORD31 / Fold change (Aza/veh), C12orf56 (ProbeSet 11735607_a_at) / Fold change (ACY-1035/veh), C12orf56 (ProbeSet 11735607_a_at) / Fold change (Aza/veh), FGFR1OP (ProbeSet 11751329_s_at) / Fold change (ACY-1035/veh), FGFR1OP (ProbeSet 11751329_s_at) / Fold change (Aza/veh), VPS36 (ProbeSet 11739960_a_at) / Fold change (ACY-1035/veh), VPS36 (ProbeSet 11739960_a_at) / RFU SYPL1 (11715823_x_at) / Fold change /veh SYPL1 (11715823_x_at) / RFU IGFBP7 (11715501_s_at) / Fold change /veh IGFBP7 (11715501_s_at) / RFU REEP3 (11722064_at) / Fold change /veh REEP3 (11722064_at) / RFU IGLL1 (11728026_x_at) / Fold change /veh IGLL1 (11728026_x_at): dose or concentration left out as unconfirmed", "details": "MV-4-11 cells, 48 hours", "data": [{"molecule": "Nc1ccc(-c2cccs2)cc1NC(=O)c1ccc2c(c1)cc(C1CC1)n2CCN1CCOCC1", "note": "[ACY-1035]", "values": [{"measurement": "RFU FAM167A (11723789_a_at)", "result": 37.08, "unit": "RFU"}]}]}
